Common to all, as to format: cell-based, human
The subject of experiment [1] is HepG2 cells. Put plainly: MTT cytotoxicity assay, HepG2. The text has this: According to our previous data and data published by other research groups, chemical transformations of bile acids can greatly improve their antitumor potential. Thus, as the first step of evaluation of the biological activities of our novel DCA derivatives we assessed their effects on tumor cell viability. The cytotoxicity of the compounds was investigated with respect to a panel of cultured cell lines, including human duodenal HuTu-80, hepatocellular HepG2, cervical KB-3-1 and lung A549 carcinomas as well as murine macrophage RAW264.7 and non-transformed human fibroblasts hFF3 by MTT assay.
Human duodenal carcinoma HuTu-80 cells, human hepatocellular carcinoma HepG2 cells, human cervical carcinoma KB-3-1 cells, human lung carcinoma A549 cells were obtained from the Russian Cell Culture Collection (Institute of Cytology, RAS, St. Petersburg, Russia). Non-transformed human fibroblasts hFF3 were kindly provided by Dr. Olga Koval (Institute of Chemical Biology and Fundamental Medicine, SB RAS, Novosibirsk, Russia). RAW264.7 macrophages were kindly provided by Prof. Dr. Dmitry Kuprash (Engelhardt Institute of Molecular Biology, RAS, Moscow, Russia). The cells were cultured in DMEM (Sigma-Aldrich Inc., St. Louis, MO, USA) supplemented with 10% (v/v) heat-inactivated fetal bovine serum (FBS) (BioloT, St. Petersburg, Russia), 100 U/mL penicillin (ICN Biomedicals Inc., Costa Mesa, CA, USA), 100 µg/mL streptomycin and 0.25 µg/mL amphotericin; additionally, in the case of RAW264.7 cells, concentration of glucose in the medium was increased up to 4.5 mg/mL. The cells were incubated at 37 °C in 5% CO2 and 95% air (hereafter referred to as standard conditions). DCA derivatives were dissolved in DMSO to yield stock solutions of 10 mmol/L and stored at −20 °C prior to use.
Cells were seeded in triplicate in 96-well plates at a density of 5 × 10^3 (HuTu-80, HepG2, KB-3-1, hFF3), 10^4 (A549) or 5 × 10^4 (RAW264.7) cells per well. Cells were incubated under standard conditions for 24 h and then they were treated with varying doses of investigated derivatives for subsequent 24 h. Then 10 µL of MTT solution (5 mg/mL) were added to each wells and cells were incubated for an additional 2 h under standard conditions. The crystals of formazan forming within live cells were solubilized with DMSO and the absorbance was measured in a Multiscan RC plate reader (Thermo LabSystems, Helsinki, Finland) at a test and reference wavelengths of 570 nm and 620 nm, respectively. […] To perform SAR analysis, hierarchical clustering of compounds based on their IC50 values was fulfilled with Euclidean distance by using the Morpheus tool (https://software.broadinstitute.org/morpheus/), a platform designed for visualization and analysis of data in a matrix format. Heatmap, containing compounds’ SI values, were constructed by using the Excel 2010 software (Microsoft, Redmond, WA, USA). In order to reveal whether ROS participate in the induction of cell death by compound 9, HuTu-80 cells cultured in 96-well plate were pretreated by NAC at 2 mM for 1 h. Thereafter, the medium was replaced by fresh medium with compound 9 at 8 µM and the cells were incubated with subsequent 24 h under standard conditions. After this time period, the curves of cytotoxicity of compound 9 in the presence or absence of NAC were compared.

In experiment [2] the test system is HuTu-80 cells. Put plainly: Cell cycle assay (PI, flow cytometry). As to conditions: 8 µM. Here is the method:
To determine the effect of compound 9 on the cell cycle, HuTu-80 cells were seeded in 6-well plates at a density of 5 × 10^5 cells/well for 24 h. After incubation, cells were treated with compound 9 at 8 µM for 6, 18 or 24 h. Thereafter, cells were collected by trypsinization, washed with cold PBS and fixed in 70% ice-cold ethanol for 30 min at 4 °C. Fixed cells were pelleted, stained with PI (1 mg/mL) for 15 min at 37 °C in the dark and analyzed using NovoCyte Flow Cytometer (ACEA Biosciences Inc.). Ten thousand events were recorded for each sample.

For experiment [3], the system named is HuTu-80 cells. Put plainly: Annexin V FITC/PI apoptosis detection. As to conditions: 8 µM; for late apoptotic cells (Annexin V FITC+/PI+): control 1.5%; for early apoptotic cells (Annexin V FITC+/PI-): control 2.9%. Here is the method:
In the first step of the mechanistic study, the effect of compound 9 on phosphatidylserine (PS) externalization, a marker of the early phase of apoptosis, was analyzed by double staining of compound 9-treated HuTu-80 cells by annexin V FITC and propidium iodide (PI). Live cells are characterized by lipid membrane asymmetry—PS is mainly present in the inner leaflet of the plasma membrane, whereas phosphatidylcholine and sphingomielin are restricted to the outer leaflet. During apoptosis the activity of enzymes involved in membrane lipid scrambling […] and PS is exposed on cell surface. Annexin V is a protein that has a high affinity for PS and its conjugates with fluorophores can be used to estimate the level of PS externalization in vitro. Usage of PI gives in turn an opportunity to identify late apoptotic and necrotic cells displaying increased membrane permeability.
HuTu-80 cells were seeded in 6-well plates at a density of 5 × 10^5 cells per well and incubated for 24 h under standard conditions. Then the medium was replaced with fresh medium containing compound 9 at 8 µM. In order to determine induction of apoptosis, cells were harvested at 6, 18 and 24 h post treatment. Cells were detached with trypsin, washed with cold PBS and then resuspended gently in binding buffer at concentration of 10^6 cells/mL. Thereafter, cells were stained with fluorescein isothiocyanate (FITC)-conjugated Annexin V and PI (Annexin V-FITC Apoptosis Detection Kit, Millipore, Bedford, MA, USA) for 15 min in the dark and subsequently analyzed using NovoCyte Flow Cytometer (ACEA Biosciences Inc., San Diego, CA, USA). For each sample, 10.000 events were acquired.

The subject of experiment [4] is HuTu-80 cells. Put plainly: Mitochondrial membrane potential (JC-1). The settings on record: 8 µM, control 18.7%. As to the method: Next, in order to identify whether the compound 9 induces apoptotic cell death by triggering mitochondrial dysfunction, we analyzed its effect on mitochondrial membrane potential (Δψm) in HuTu-80 cells by using fluorescent cationic JC-1 dye (Figure 2B).
The mitochondrial-specific cationic dye JC-1 (Molecular Probes, Invitrogen, Carlsbad, CA, USA) accumulating in the mitochondria by potential-dependent manner was used to detect the effect of compound 9 on ∆ψM. Briefly, HuTu-80 cells were seeded in 6-well plates at a density of 5 × 10^5 cells/well for 24 h. Then cells were treated by compound 9 at 8 µM for 6, 18 or 24 h, collected by trypsinization, washed with PBS, and JC-1 (5 µg/mL) was added to the cells. After 30 min of incubation at 37 °C, the cells were centrifuged, washed with PBS and analyzed using NovoCyte Flow Cytometer (ACEA Biosciences Inc.).

Each structure is given as a SMILES string. Some results are limits rather than exact numbers.

Consider `COC(=O)CC[C@@H](C)[C@H]1CC[C@H]2[C@@H]3CC[C@@H]4CC(O)(CNCCCO)CC[C@]4(C)[C@H]3CC(=O)[C@]12C` (stereo partly drawn) [Compound 9, Methyl 3-hydroxy-3-((3-hydroxypropylamino)methyl)-12-oxo-5β-cholan-24-oate], for which the IC50 in experiment [1] (Homo sapiens, HepG2, MTT, 24 h, read-out: IC50 HepG2 (liver)) stood at 7.3 ± 0.6 µM. For the same compound, the “Selectivity index HepG-2” value in experiment [1] (ratio IC50 hFF3 / IC50 HepG2) stood at 4.5. Also, the subG1 cell population is reported as 7.4% in experiment [2] (6 h), 30.0% in experiment [2] (18 h) and 41.1% in experiment [2] (24 h). Besides, the figures for the “late apoptotic cells (Annexin V FITC+/PI+)” value in experiment [3] (18 h) and in experiment [3] (24 h) were 4.9% and 10.6%, respectively. Also, the figures for the “early apoptotic cells (Annexin V FITC+/PI-)” value in experiment [3] (18 h) and in experiment [3] (24 h) were 23.5% and 36.1%, respectively. In addition, the “necrotic cells (Annexin V FITC-/PI+)” value in experiment [3] (all time points (6, 18, 24 h)) is no more than 1.1%. Moreover, the figures for the “cells with collapsed membrane potential (Low MMP)” value in experiment [4] (6 h), in experiment [4] (18 h) and in experiment [4] (24 h) were 38.2%, 68.6% and 78.8%, respectively.
